Data published in the NIST ThermoML archive (doi:10.1016/j.jct.2016.09.030).

Test: xn = mol fraction of the nth substance listed
Conditions: 100 kPa, Liquid; for viscosity: Concentric cylinders viscometry; for mass density: Vibrating tube method

CCCCCCCC(=O)OCC [ethyl octanoate] + CC(C)CO
Conditions | mass density [kg/m3] | viscosity [mPa·s]
288.15 K, x1 = 0.1001 | 817.82 | 3.229
288.15 K, x1 = 0.1999 | 827.81 | 2.537
288.15 K, x1 = 0.3 | 836.01 | 2.169
288.15 K, x1 = 0.4 | 843.08 | 1.977
288.15 K, x1 = 0.5 | 849.18 | 1.851
288.15 K, x1 = 0.5999 | 854.5 | 1.766
288.15 K, x1 = 0.6999 | 859.21 | 1.703
288.15 K, x1 = 0.7999 | 863.44 | 1.677
288.15 K, x1 = 0.9 | 867.3 | 1.677
288.15 K, x1 = 1 | 870.88 | 1.686
293.15 K, x1 = 0.1001 | 813.83 | 2.762
293.15 K, x1 = 0.1999 | 823.71 | 2.22
293.15 K, x1 = 0.3 | 831.83 | 1.921
293.15 K, x1 = 0.4 | 838.85 | 1.768
293.15 K, x1 = 0.5 | 844.91 | 1.661
293.15 K, x1 = 0.5999 | 850.21 | 1.593
293.15 K, x1 = 0.6999 | 854.9 | 1.543
293.15 K, x1 = 0.7999 | 859.12 | 1.523
293.15 K, x1 = 0.9 | 862.98 | 1.524
293.15 K, x1 = 1 | 866.58 | 1.537
298.15 K, x1 = 0.1001 | 809.81 | 2.416
298.15 K, x1 = 0.1999 | 819.58 | 1.961
298.15 K, x1 = 0.3 | 827.63 | 1.716
298.15 K, x1 = 0.4 | 834.6 | 1.592
298.15 K, x1 = 0.5 | 840.63 | 1.503
298.15 K, x1 = 0.5999 | 845.9 | 1.447
298.15 K, x1 = 0.6999 | 850.58 | 1.407
298.15 K, x1 = 0.7999 | 854.81 | 1.393
298.15 K, x1 = 0.9 | 858.67 | 1.393
298.15 K, x1 = 1 | 862.28 | 1.41
303.15 K, x1 = 0.1001 | 805.76 | 2.111
303.15 K, x1 = 0.1999 | 815.43 | 1.74
303.15 K, x1 = 0.3 | 823.41 | 1.541
303.15 K, x1 = 0.4 | 830.32 | 1.44
303.15 K, x1 = 0.5 | 836.32 | 1.364
303.15 K, x1 = 0.5999 | 841.57 | 1.321
303.15 K, x1 = 0.6999 | 846.25 | 1.289
303.15 K, x1 = 0.7999 | 850.48 | 1.278
303.15 K, x1 = 0.9 | 854.35 | 1.283
303.15 K, x1 = 1 | 857.98 | 1.298
308.15 K, x1 = 0.1001 | 801.68 | 1.854
308.15 K, x1 = 0.1999 | 811.24 | 1.554
308.15 K, x1 = 0.3 | 819.16 | 1.389
308.15 K, x1 = 0.4 | 826.03 | 1.307
308.15 K, x1 = 0.5 | 832 | 1.246
308.15 K, x1 = 0.5999 | 837.24 | 1.21
308.15 K, x1 = 0.6999 | 841.91 | 1.186
308.15 K, x1 = 0.7999 | 846.14 | 1.179
308.15 K, x1 = 0.9 | 850.03 | 1.184
308.15 K, x1 = 1 | 853.68 | 1.2
313.15 K, x1 = 0.1001 | 797.55 | 1.642
313.15 K, x1 = 0.1999 | 807.02 | 1.399
313.15 K, x1 = 0.3 | 814.88 | 1.264
313.15 K, x1 = 0.4 | 821.71 | 1.196
313.15 K, x1 = 0.5 | 827.66 | 1.148
313.15 K, x1 = 0.5999 | 832.89 | 1.119
313.15 K, x1 = 0.6999 | 837.56 | 1.1
313.15 K, x1 = 0.7999 | 841.8 | 1.096
313.15 K, x1 = 0.9 | 845.7 | 1.103
313.15 K, x1 = 1 | 849.37 | 1.118
318.15 K, x1 = 0.1001 | 793.38 | 1.453
318.15 K, x1 = 0.1999 | 802.76 | 1.254
318.15 K, x1 = 0.3 | 810.56 | 1.144
318.15 K, x1 = 0.4 | 817.36 | 1.089
318.15 K, x1 = 0.5 | 823.29 | 1.05
318.15 K, x1 = 0.5999 | 828.51 | 1.027
318.15 K, x1 = 0.6999 | 833.19 | 1.013
318.15 K, x1 = 0.7999 | 837.45 | 1.012
318.15 K, x1 = 0.9 | 841.37 | 1.02
318.15 K, x1 = 1 | 845.06 | 1.035
323.15 K, x1 = 0.1001 | 789.15 | 1.308
323.15 K, x1 = 0.1999 | 798.46 | 1.144
323.15 K, x1 = 0.3 | 806.21 | 1.052
323.15 K, x1 = 0.4 | 812.99 | 1.006
323.15 K, x1 = 0.5 | 818.9 | 0.975
323.15 K, x1 = 0.5999 | 824.13 | 0.9556
323.15 K, x1 = 0.6999 | 828.81 | 0.9463
323.15 K, x1 = 0.7999 | 833.08 | 0.9462
323.15 K, x1 = 0.9 | 837.02 | 0.9546
323.15 K, x1 = 1 | 840.74 | 0.9708
